Reference: article PMC5834492, “Antimycobacterial drug discovery using Mycobacteria-infected amoebae identifies anti-infectives and new molecular targets” (Scientific Reports, 2018)
Read-outs that look alike come from different tables or passages of the source.

What was measured:
M. marinum luxCDABE = type: cell-based, Mycobacterium marinum; settings: 10 µM
M. marinum GFP = type: cell-based, Mycobacterium marinum; settings: 10 µM; antibiotic assay
[1] = test system: M. marinum in A. castellanii; type: cell-based, Mycobacterium marinum; settings: 10 µM
[2] = test system: M. marinum in BV2 microglial cells; type: cell-based, Mycobacterium marinum; settings: for BV2 / M. marinum normalised growth, control=1.00, mean / hit in BV2/M. marinum assay True/False: 10 µM
D. discoideum GFP-ABD = settings: 10 µM
Mtb H37Rv in THP-1 = test system: Mtb H37Rv in THP-1; design: method as in Sorrentino et al, 2015; settings: ref Sorrentino et al, 2015, cited from earlier work; for Extracellular MIC90/ Inracellular MIC90: ratio
Mtb H37Rv = test system: Mtb H37Rv; design: method as in Sorrentino et al, 2015; settings: ref Sorrentino et al, 2015; cited from earlier work
[3] = THP1 / Mtb H37Rv infection assay

## O=C(c1cc2c(s1)CCC2)N1CCN(Cc2ccc3c(c2)OCO3)CC1 [GSK1731114A]
M. marinum luxCDABE
  M. marinum luxCDABE normalised growth, control=1.00, mean: 0.085
M. marinum GFP
  M. marinum GFP normalised growth, control=1.00, mean: 0.30
[1]
  A. castellanii / M. marinum normalised growth, control=1.00, mean: 0.92
[2]
  IC50: 9.43 µM
  BV2 / M. marinum normalised growth, control=1.00, mean: 0.81
D. discoideum GFP-ABD
  D. discoideum GFP-ABD normalised growth, control=1.00, mean: 0.44
Mtb H37Rv in THP-1; [3]
  Intracelullar MIC90 in THP-1: 5.55 µM
Mtb H37Rv in THP-1
  Extracellular MIC90/ Inracellular MIC90: 0.95
Mtb H37Rv
  Extracellular MIC90: 5.3 µM

## O=C(C=Cc1cccs1)N1CCN(Cc2ccc(Br)s2)CC1 [GSK1744926A]
M. marinum luxCDABE
  M. marinum luxCDABE normalised growth, control=1.00, mean: 0.00
M. marinum GFP
  M. marinum GFP normalised growth, control=1.00, mean: 0.13
[1]
  A. castellanii / M. marinum normalised growth, control=1.00, mean: 0.74
[2]
  IC50: 4.18 µM
  BV2 / M. marinum normalised growth, control=1.00, mean: 0.70
D. discoideum GFP-ABD
  D. discoideum GFP-ABD normalised growth, control=1.00, mean: 0.50
Mtb H37Rv in THP-1; [3]
  Intracelullar MIC90 in THP-1: 1.85 µM
Mtb H37Rv in THP-1
  Extracellular MIC90/ Inracellular MIC90: 1.03
Mtb H37Rv
  Extracellular MIC90: 1.9 µM

## CN1CCN(c2ccc(C(F)(F)F)cc2NC(=O)c2ccccn2)CC1 [GSK1750922A]
M. marinum luxCDABE
  M. marinum luxCDABE normalised growth, control=1.00, mean: 1.00
M. marinum GFP
  M. marinum GFP normalised growth, control=1.00, mean: 0.91
[1]
  A. castellanii / M. marinum normalised growth, control=1.00, mean: 0.93
[2]
  IC50: 5.07 µM
  BV2 / M. marinum normalised growth, control=1.00, mean: 0.94
D. discoideum GFP-ABD
  D. discoideum GFP-ABD normalised growth, control=1.00, mean: 0.29
Mtb H37Rv in THP-1; [3]
  Intracelullar MIC90 in THP-1: 50 µM
Mtb H37Rv in THP-1
  Extracellular MIC90/ Inracellular MIC90: 0.04
Mtb H37Rv
  Extracellular MIC90: 1.9 µM

## CCOc1ccc(-c2nc(CNCCc3ccc(F)cc3)cs2)cc1.O=C(O)C(=O)O [GSK1759150A]
M. marinum luxCDABE
  M. marinum luxCDABE normalised growth, control=1.00, mean: 0.37
M. marinum GFP
  M. marinum GFP normalised growth, control=1.00, mean: 0.75
[1]
  A. castellanii / M. marinum normalised growth, control=1.00, mean: 0.82
[2]
  IC50: 4.31 µM
  BV2 / M. marinum normalised growth, control=1.00, mean: 0.73
D. discoideum GFP-ABD
  D. discoideum GFP-ABD normalised growth, control=1.00, mean: 0.30
Mtb H37Rv in THP-1; [3]
  Intracelullar MIC90 in THP-1: 16.65 µM
Mtb H37Rv in THP-1
  Extracellular MIC90/ Inracellular MIC90: 0.07
Mtb H37Rv
  Extracellular MIC90: 1.1 µM

## Cl.O=C(c1ccco1)N(CCCn1ccnc1)c1nc2c(Cl)cccc2s1 [GSK1788487A]
M. marinum luxCDABE
  M. marinum luxCDABE normalised growth, control=1.00, mean: 0.09
M. marinum GFP
  M. marinum GFP normalised growth, control=1.00, mean: 0.66
[1]
  A. castellanii / M. marinum normalised growth, control=1.00, mean: 1.34
[2]
  IC50: 4.96 µM
  BV2 / M. marinum normalised growth, control=1.00, mean: 0.94
D. discoideum GFP-ABD
  D. discoideum GFP-ABD normalised growth, control=1.00, mean: 0.32
Mtb H37Rv in THP-1; [3]
  Intracelullar MIC90 in THP-1: 50 µM
Mtb H37Rv in THP-1
  Extracellular MIC90/ Inracellular MIC90: 0.17
Mtb H37Rv
  Extracellular MIC90: 8.4 µM

## Cn1ccnc1CNCCS(=O)(=O)c1cccc(Nc2ccc(-c3cccc(F)c3)cn2)c1 [GSK1826247A]
M. marinum luxCDABE
  M. marinum luxCDABE normalised growth, control=1.00, mean: 0.00
M. marinum GFP
  M. marinum GFP normalised growth, control=1.00, mean: 0.98
[1]
  A. castellanii / M. marinum normalised growth, control=1.00, mean: 1.14
[2]
  IC50: 7.73 µM
  BV2 / M. marinum normalised growth, control=1.00, mean: 0.98
D. discoideum GFP-ABD
  D. discoideum GFP-ABD normalised growth, control=1.00, mean: 0.90
Mtb H37Rv in THP-1; [3]
  Intracelullar MIC90 in THP-1: 0.61 µM
Mtb H37Rv in THP-1
  Extracellular MIC90/ Inracellular MIC90: 7.7
Mtb H37Rv
  Extracellular MIC90: 4.7 µM

## O=C(NCc1ccc2c(c1)OCO2)c1c(C(F)(F)F)nc2ccccn12 [GSK1829671A]
M. marinum luxCDABE
  M. marinum luxCDABE normalised growth, control = 1.00, mean: 0,00
  M. marinum luxCDABE normalised growth, control=1.00, mean: 0.00
M. marinum GFP
  M. marinum GFP normalised growth, control=1.00, mean: 0.06
[1]
  A. castellanii / M. marinum normalised growth, control=1.00, mean: 0.66
  Hits A. castellanii/M. marinum assay True/False: FALSE
[2]
  IC50: 7.47 µM
  BV2 / M. marinum normalised growth, control=1.00, mean: 0.49
  hit in BV2/M. marinum assay True/False: TRUE
D. discoideum GFP-ABD
  D. discoideum GFP-ABD normalised growth, control = 1.00, mean: 1,21
  D. discoideum GFP-ABD normalised growth, control=1.00, mean: 1.21
Mtb H37Rv in THP-1; Mtb H37Rv-infected THP1 cells
  Intracelullar MIC90 in THP-1: 16.65 µM
Mtb H37Rv in THP-1; [3]
  Intracelullar MIC90 in THP-1: 16.65 µM
Mtb H37Rv in THP-1
  Extracellular MIC90/ Inracellular MIC90: 0.2
Mtb H37Rv
  Extracellular MIC90: 3.3 µM

## O=C(NCc1ccc(Oc2ccccc2)cc1)c1c(C(F)(F)F)nc2ccccn12 [GSK1829676A]
M. marinum luxCDABE
  M. marinum luxCDABE normalised growth, control = 1.00, mean: 0,00
  M. marinum luxCDABE normalised growth, control=1.00, mean: 0.00
M. marinum GFP
  M. marinum GFP normalised growth, control=1.00, mean: 0.0321
[1]
  A. castellanii / M. marinum normalised growth, control=1.00, mean: 0.56
  Hits A. castellanii/M. marinum assay True/False: FALSE
[2]
  BV2 / M. marinum normalised growth, control=1.00, mean: 0.35
  hit in BV2/M. marinum assay True/False: TRUE
D. discoideum GFP-ABD
  D. discoideum GFP-ABD normalised growth, control=1.00, mean: 0.75
Mtb H37Rv in THP-1; Mtb H37Rv-infected THP1 cells
  Intracelullar MIC90 in THP-1: 0.21 µM
Mtb H37Rv in THP-1; [3]
  Intracelullar MIC90 in THP-1: 0.21 µM
Mtb H37Rv in THP-1
  Extracellular MIC90/ Inracellular MIC90: 0.95
Mtb H37Rv
  Extracellular MIC90: 0.2 µM
